Data taken from patent publication US6291432A (Japan Energy Corporation, priority 1996, dated 2001).
pKi: −log10 of the molar value. Read-outs that look alike come from different tables or passages of the source.

What was measured:
[1] = target: T1, recombinant HIV-1 protease (Human immunodeficiency virus type 1 group M subtype B, UniProt P04585); assay: HIV protease inhibition activity (enzyme activity inhibition rate); assay type: biochemical; conditions: for inhibition at 0.05 µM: read-out: Enzyme activity inhibition rate (%) (addition concentration of 50 nM)
T1 construct: measured using a recombinant HIV-1 protease
Experimental: The protease activity was measured using a recombinant HIV-1 protease (see Biochemistry, 250 (9)-264 (1990)) and a synthesized peptide substrate. The inhibition rate was calculated by determining a peptide fragment generated by cleavage between Tyr-Pro of the synthesized substrate after the reaction of 60 min at 37° C. using a reversed phase HPLC in the presence of the test compounds in various concentrations (see, for example, Japanese Patent Application Laid-open No. 170722/1993).
Examples of the evaluation results of the HIV protease inhibition activity of the tripeptide compound of the present invention by the above-described method is shown in Table 1. […] The concentration of the test compounds in Table 1 represents the final concentration in the reaction mixture.

[2] = target: T1, recombinant HIV-1 protease; assay: Evaluation of enzyme inhibition constant Ki; assay type: biochemical
Experimental: The synthesized peptide substrate having a sequence of H-Lys-Ala-Arg-Val-Tyr-Phe (4-NO2)-Glu-Ala-Nle-NH2 (SEQ ID NO. 1) was used in this experiment. The enzyme reaction was measured using a reversed phase HPLC by determining the C-terminal peptide fraction produced by cleavage just behind Tyr in the synthesized substrate which is obtained by reacting the following composition for 15 min. at 37° C. and stopping the reaction by the addition of 1N HCl (75 μl).
Composition of reaction mixture
Recombinant HIV-1 protease enzyme solution 10 μl
0.5 mM synthetic substrate aqueous solution 10 μl
DMSO Inhibitor solution 5 μl
0.2 M MES solution 25 μl
(1 M NaCl, 2 mM EDTA-2Na, 2 mM DTT, pH 5.5)
Column: Waters Nova-pak C18 (3.9×75 mm)
Eluent: A; water (0.1% TFA)
B; acetonitrile (0.1% TFA)
Flow rate: 2 ml/min isocratic; 10% B solution
Detection: Fluorescence 305 nm, excitation 275 nm

[3] = 50 nM final concentration of test compound, 60 min at 37° C.

Structure (SMILES)	inhibition at 0.05 µM [1, 3] [%]	further results
Cc1ccccc1CNC(=O)[C@H]1N(C(=O)[C@@H](O)[C@H](Cc2ccccc2)NC(=O)[C@H](CC(N)=O)NC(=O)OCc2ccccc2)CSC1(C)C [Example 3, (R)-N-(2-methylbenzyl)-3-{(2S,3S)-3-[N-(benzyloxycarbonyl)-L-asparaginyl]amino-2-hydroxy-4-phenylbutanoyl}-5,5-dimethyl-1,3-thiazolidine-4-carboxamide]	100	pKi [2]: 10.80
CC(C)(C)NC(=O)[C@H]1N(C(=O)[C@@H](O)[C@H](Cc2ccccc2)NC(=O)[C@H](CC(N)=O)NC(=O)OCc2ccccc2)CSC1(C)C [reference compound]		pKi [2]: 9.67
Cc1ccccc1CNC(=O)[C@H]1N(C(=O)[C@@H](O)[C@H](Cc2ccccc2)NC(=O)[C@H](CC(N)=O)NC(=O)c2cc(=O)c3ccccc3o2)CSC1(C)C [Example 6, (R)-N-(2-methylbenzyl)-3-{(2S,3S)-3-[N-(2-chromonecarbonyl)-L-asparaginyl]amino-2-hydroxy-4-phenylbutanoyl}-5,5-dimethyl-1,3-thiazolidine-4-carboxamide]		Enzyme activity inhibition rate (%) (addition concentration of 50 nM) [1, 3]: 98.4%; pKi ([2]; reversible tight-binding inhibitor model, test compound 1-100 nM, 15 min at 37° C., pH 5.5, read-out: Enzyme inhibition constant Ki): 11.77
CC[C@H](NC(=O)OC)C(=O)N[C@@H](Cc1ccccc1)[C@H](O)C(=O)N1CSC(C)(C)[C@H]1C(=O)NCc1ccccc1C [Example 28, (R)-N-(2-methylbenzyl)-3-{(2S,3S)-2-hydroxy-3-[(S)-2-(methoxycarbonyl)aminobutanoyl]amino-4-phenylbutanoyl}-5,5-dimethyl-1,3-thiazolidine-4-carboxamide]	93.6	pKi [2]: 9.62
CC(=O)N[C@H](C(=O)N[C@@H](Cc1ccccc1)[C@H](O)C(=O)N1CSC(C)(C)[C@H]1C(=O)NCc1ccccc1C)C(C)C [Example 33, (R)-N-(2-methylbenzyl)-3-{(2S,3S)-2-hydroxy-3-[(S)-2-acetylamino-3-methylbutanoyl]amino-4-phenylbutanoyl}-5,5-dimethyl-1,3-thiazolidine-4-carboxamide]	89.8	
Cc1ccccc1CNC(=O)[C@@H]1[C@@H](C)OCN1C(=O)[C@@H](O)[C@H](Cc1ccccc1)NC(=O)[C@H](CC(N)=O)NC(=O)OCc1ccccc1 [Example 9, (4S,5R)-N-(2-methylbenzyl)-3-{(2S,3S)-3-[N-(benzyloxycarbonyl)-L-asparaginyl]amino-2-hydroxy-4-phenylbutanoyl}-5-methyl-1,3-oxazolidine-4-carboxamide]	61.9	
Cc1ccccc1CNC(=O)[C@H]1N(C(=O)[C@@H](O)[C@H](Cc2ccccc2)NC(=O)[C@@H](NC(=O)c2cnc3ccccc3n2)C(C)C)CSC1(C)C [Example 19, (R)-N-(2-methylbenzyl)-3-{(2S,3S)-3-[N-(2-quinoxalinecarbonyl)-L-valyl]amino-2-hydroxy-4-phenylbutanoyl}-5,5-dimethyl-1,3-thiazolidine-4-carboxamide]	97.3	
Cc1ccccc1CNC(=O)[C@H]1N(C(=O)[C@@H](O)[C@H](Cc2ccccc2)NC(=O)[C@@H](NC(=O)c2nc3ccccc3[nH]2)C(C)C)CSC1(C)C [Example 15, (R)-N-(2-methylbenzyl)-3-{(2S,3S)-3-[N-(2-benzimidazolecarbonyl)-L-valyl]amino-2-hydroxy-4-phenylbutanoyl}-5,5-dimethyl-1,3-thiazolidine-4-carboxamide]	92.8	
Cc1ccccc1CNC(=O)[C@H]1N(C(=O)[C@@H](O)[C@H](Cc2ccccc2)NC(=O)[C@@H](NC(=O)c2cnc3ccccc3c2)C(C)C)CSC1(C)C [Example 21, (R)-N-(2-methylbenzyl)-3-{(2S,3S)-2-hydroxy-3-[(S)-2-(3-quinolinecarbonyl)amino-3-methylbutanoyl]amino-4-phenylbutanoyl}-5,5-dimethyl-1,3-thiazolidine-4-carboxamide]	97.7	
Cc1ccccc1CNC(=O)[C@H]1N(C(=O)[C@@H](O)[C@H](Cc2ccccc2)NC(=O)[C@@H](NC(=O)c2cc3ccccc3o2)C(C)C)CSC1(C)C [Example 11, (R)-N-(2-methylbenzyl)-3-{(2S,3S)-3-[N-(2-benzofurancarbonyl)-L-valyl]amino-2-hydroxy-4-phenylbutanoyl}-5,5-dimethyl-1,3-thiazolidine-4-carboxamide]	97.1	
Cc1ccccc1CNC(=O)[C@H]1N(C(=O)[C@@H](O)[C@H](Cc2ccccc2)NC(=O)[C@@H](NC(=O)COc2cccc3ncccc23)C(C)C)CSC1(C)C [Example 23, (R)-N-(2-methylbenzyl)-3-{(2S,3S)-2-hydroxy-3-[(S)-2-(5-quinolinyloxyacetyl)amino-3-methylbutanoyl]amino-4-phenylbutanoyl}-5,5-dimethyl-1,3-thiazolidine-4-carboxamide]	98.5	
Cc1ccccc1CNC(=O)[C@H]1N(C(=O)[C@@H](O)[C@H](Cc2ccccc2)NC(=O)[C@@H](NC(=O)COc2cccc3cnccc23)C(C)C)CSC1(C)C [Example 8, (R)-N-(2-methylbenzyl)-3-{(2S,3S)-3-[N-(5-isoquinolinyloxyacetyl)-L-valyl]amino-2-hydroxy-4-phenylbutanoyl}-5,5-dimethyl-1,3-thiazolidine-4-carboxamide]	97.7	
Cc1ccccc1CNC(=O)[C@H]1N(C(=O)[C@@H](O)[C@H](Cc2ccccc2)NC(=O)[C@H](CC(N)=O)NC(=O)c2cc3ccccc3o2)CSC1(C)C [Example 7, (R)-N-(2-methylbenzyl)-3-{(2S,3S)-3-[N-(2-benzofurancarbonyl)-L-asparaginyl]amino-2-hydroxy-4-phenylbutanoyl}-5,5-dimethyl-1,3-thiazolidine-4-carboxamide]	91.2	pKi [2]: 11.32
Cc1ccccc1CNC(=O)[C@H]1N(C(=O)[C@@H](O)[C@H](Cc2ccccc2)NC(=O)[C@@H](NC(=O)OCc2ccccc2)C(C)C)CSC1(C)C [Example 4, (R)-N-(2-methylbenzyl)-3-{(2S,3S)-3-[N-(benzyloxycarbonyl)-L-valyl]amino-2-hydroxy-4-phenylbutanoyl}-5,5-dimethyl-1,3-thiazolidine-4-carboxamide]	95.3	
COC(=O)N[C@@H](CC(N)=O)C(=O)N[C@@H](Cc1ccccc1)[C@H](O)C(=O)N1CSC(C)(C)[C@H]1C(=O)NCc1ccccc1C [Example 40, (R)-N-(2-methylbenzyl)-3-{(2S,3S)-2-hydroxy-3-[N-(methoxycarbonyl)-L-asparaginyl]amino-4-phenylbutanoyl}-5,5-dimethyl-1,3-thiazolidine-4-carboxamide]	94.3	
CCOCC(=O)N[C@H](C(=O)N[C@@H](Cc1ccccc1)[C@H](O)C(=O)N1CSC(C)(C)[C@H]1C(=O)NCc1ccccc1C)C(C)C [Example 32, (R)-N-(2-methylbenzyl)-3-{(2S,3S)-2-hydroxy-3-[(S)-2-(ethoxyacetyl)amino-3-methylbutanoyl]amino-4-phenylbutanoyl}-5,5-dimethyl-1,3-thiazolidine-4-carb oxamide]		inhibition at 0.05 µM [1]: 96.4%
CC[C@H](NC(=O)COc1cccc(N(C)C)c1)C(=O)N[C@@H](Cc1ccccc1)[C@H](O)C(=O)N1CSC(C)(C)[C@H]1C(=O)NCc1ccccc1C [Example 25, (R)-N-(2-methylbenzyl)-3-{(2S,3S)-2-hydroxy-3-[(S)-2-(3-dimethylaminophenoxyacetyl)aminobutanoyl]amino-4-phenylbutanoyl}-5,5-dimethyl-1-thiazolidine-4-carboxamide]		Enzyme activity inhibition rate (%) (addition concentration of 50 nM) [1, 3]: 99.9%
COC(=O)N[C@H](C(=O)N[C@@H](Cc1ccccc1)[C@H](O)C(=O)N1CSC(C)(C)[C@H]1C(=O)NCc1ccccc1C)[C@@H](C)O [Example 39, (R)-N-(2-methylbenzyl)-3-{(2S,3S)-2-hydroxy-3-[N-(methoxycarbonyl)-L-threonyl]amino-4-phenylbutanoyl}-5,5-dimethyl-1,3-thiazolidine-4-carboxamide]	84.6	
CC1(C)SCN(C(=O)[C@@H](O)[C@H](Cc2ccccc2)NC(=O)[C@H](CC(N)=O)NC(=O)OCc2ccccc2)[C@@H]1C(=O)NCc1ccccc1 [Example 1, (R)-N-benzyl-3-{(2S,3S)-3-[N-(benzyloxycarbonyl)-L-asparaginyl]amino-2-hydroxy-4-phenylbutanoyl}-5,5-dimethyl-1,3-thiazolidine-4-carboxamide]	96	pKi [2]: 10.72
